The test concerns Wnt/β-catenin pathway. The experiment in a line: Wnt reporter assay (TCF-Luciferase, Firefly) in DBTRG-05MG cells. It is filed as cell-based. The note with it: Homo sapiens, 24 hours after compound addition. How it is done:
TCF-Luciferase: Three copies of a 4×TCF responsive elements were cloned into the pcDNA3.1/Zeo(+) vector (Invitrogen) after deletion of the constitutive CMV promoter and the insertion of the Firefly Luciferase from Promega (phFL-TK) to measure the activity of the Wnt/β-catenin pathway. The resulting plasmid was sequenced for quality control.
Cells were grown in 20 μg/ml Zeocin and 20 μg/ml Zeocin plus 30 μg/ml Hygromicin respectively. The cells were plated at a density of 6500 cells/well in poly-D-lysine pre-treated 96 well-plates.
IC50 determination: 36 hours after plating cells were incubated with 8-points (60 μM-40 μM-20 μM-10 μM-5 μM-1.66 μM-0.55 μM-0.185 μM) dilutions compound (0.6% DMSO (v/v)). Each compound was tested in triplicate in single plate. Luciferase detection was done with Dual-Luciferase Reporter Assay System (Promega). 24 hours after compound addition, media was removed and 30 μl of 1× lysis buffer was added to each well for 30 minutes. To each well 45 μl of Dual-Glo Luciferase reagent (Promega) were added and after 1 second delay Luciferase was detected for 1 second using Mithras LB940 instrument. After Firefly luciferase quantification 45 μl of Dual Stop & Glo reagent (Promega) were added to each well and Firefly Renilla was detected using the same parameters described before.
Data were expressed as % of control for Firefly and Renilla luciferase independently; values were calculated using XLFit version 4.2, with a four parameters sigmoid function (XLFit model 205).

pIC50: −log10 of the molar value.

`O=c1[nH]c2ccccc2c(=O)n1C[C@H]1CC[C@H](C(=O)N2CCN(c3ncccn3)CC2)CC1` [Example 1, trans-3-[4-(4-Pyrimidin-2-yl-piperazine-1-carbonyl)-cyclohexylmethyl]-1H-quinazoline-2,4-dione] gave a pIC50 of 4.52 to 6.52.

The molecule `Cn1c(=O)n(C[C@H]2CC[C@H](C(=O)N3CCN(c4ccccc4)CC3)CC2)c(=O)c2ccccc21` [Example 2, trans-1-Methyl-3-[4-(4-phenyl-piperazine-1-carbonyl)-cyclohexylmethyl]-1H-quinazoline-2,4-dione] showed a negative logarithm of the IC50 (pIC50) of 4.52 to 6.52.

Molecule `O=C(C1CCCO1)N1CCN(C(=O)[C@H]2CC[C@H](Cn3c(=O)[nH]c4ccccc4c3=O)CC2)CC1` (stereo partly drawn) [Example 4, 3-{4-[4-(Tetrahydro-furan-2-carbonyl)-piperazine-1-carbonyl]-cyclohexylmethyl}-1H-quinazoline-2,4-dione] gave a pIC50 of 4.52 to 6.52.

`CC(C)C(=O)N1CCN(C(=O)[C@H]2CC[C@H](CN3C(=O)CC(c4ccccc4)NC3=O)CC2)CC1` (stereo partly drawn) [Example 6, 3-[trans-4-(4-Isobutyryl-piperazine-1-carbonyl)-cyclohexylmethyl]-6-phenyl-dihydro-pyrimidine-2,4-dione] had a pIC50 of 4.52 to 6.52.

With `O=C(C1CC1)N1CCN(C(=O)[C@H]2CC[C@H](CN3Cc4ccccc4NC3=O)CC2)CC1` [Example 7, 3-[trans-4-(4-Cyclopropanecarbonyl-piperazine-1-carbonyl)cyclohexylmethyl]-3,4-dihydro-1H-quinazolin-2-one], the pIC50 was 4.52 to 6.52.

`COc1ccc2[nH]c(=O)n(C[C@H]3CC[C@H](C(=O)N4CCOCC4)CC3)c2c1` [Example 8, 6-Methoxy-1-[trans-4-(morpholine-4-carbonyl)-cyclohexylmethyl]-1,3-dihydro-benzoimidazol-2-one] gave a pIC50 of 4.52 to 6.52.

As for `COc1ccc2c(c1)n(C[C@H]1CC[C@H](C(=O)N3CCOCC3)CC1)c(=O)n2C` [Example 9, 5-Methoxy-1-methyl-3-[trans-4-(morpholine-4-carbonyl)-cyclohexylmethyl]-1,3-dihydro-benzoimidazol-2-one], the pIC50 is 4.52 to 6.52.

On to `O=C(C1CC1)N1CCN(C(=O)[C@H]2CC[C@H](Cn3c(=O)[nH]c4ccc(Cl)cc43)CC2)CC1` [Example 11, 6-Chloro-1-[trans-4-(4-cyclopropanecarbonyl-piperazine-1-carbonyl)cyclohexylmethyl]-1,3-dihydro-benzoimidazol-2-one], for which the negative-log IC50 (pIC50) was 4.52 to 6.52.

Consider `CC(=O)N1CCN(C(=O)[C@H]2CC[C@H](CN3C(=O)Cc4ccccc4C3=O)CC2)CC1` [Example 12, 2-[trans-4-(4-Acetyl-piperazine-1-carbonyl)-cyclohexylmethyl]-4H-isoquinoline-1,3-dione], for which the negative-log IC50 (pIC50) is 4.52 to 6.52.

Take `O=C1CN(C[C@H]2CC[C@H](C(=O)N3CCN(c4ccccn4)CC3)CC2)C(=O)c2ccccc2N1` [Example 13, 4-[trans-4-(4-pyridin-2-yl-piperazine-1-carbonyl)-cyclohexylmethyl]-3,4-dihydro-1H-benzo[e][1,4]diazepine-2,5-dione]: the negative logarithm of the IC50 (pIC50) was 4.52 to 6.52.

For the molecule `CN1C(=O)CN(C[C@H]2CC[C@H](C(=O)N3CCN(c4ccccn4)CC3)CC2)C(=O)c2ccccc21` [Example 14, 1-Methyl-4-[trans-4-(4-pyridin-2-yl-piperazine-1-carbonyl)-cyclohexylmethyl]-3,4-dihydro-1H-benzo[e][1,4]diazepine-2,5-dione], the negative logarithm of the IC50 (pIC50) was 4.52 to 6.52.

`CN1C(=O)N(C[C@H]2CC[C@H](C(=O)N3CCN(c4ccccn4)CC3)CC2)C(=O)Cc2ccccc21` [Example 15, 1-Methyl-3-[trans-4-(4-pyridin-2-yl-piperazine-1-carbonyl)-cyclohexylmethyl]-1,5-dihydro-benzo[d][1,3]diazepine-2,4-dione]: the negative logarithm of the IC50 (pIC50) was 4.52 to 6.52.

Turning to `O=C1Nc2ccccc2CCN1C[C@H]1CC[C@H](C(=O)N2CCN(c3ccccn3)CC2)CC1` [Example 16, 3-[trans-4-(4-pyridin-2-yl-piperazine-1-carbonyl)-cyclohexylmethyl]-1,3,4,5-tetrahydro-benzo[d][1,3]diazepin-2-one], the pIC50 is 4.52 to 6.52.

Consider `COc1ccc2c(c1)n(C[C@H]1CC[C@H](C(=O)N3CCN(C(C)=O)CC3)CC1)c(=O)n2C` [Example 17, 3-[trans-4-(4-Acetyl-piperazine-1-carbonyl)-cyclohexylmethyl]-5-methoxy-1-methyl-1,3-dihydro-benzoimidazol-2-one], for which the negative logarithm of the IC50 (pIC50) is 4.52 to 6.52.

Take `O=C(C1CCC(Cn2cnc3ccccc3c2=O)CC1)N1CCN(Cc2ccccc2)CC1` (stereo not drawn) [Example 19]: the pIC50 is 4.52 to 6.52.

For `O=C(C1CCC(Cn2c(=O)[nH]c3ccccc3c2=O)CC1)N1CCOCC1` (stereo not drawn) [Example 22], the negative-log IC50 (pIC50) is 4.52 to 6.52.

In turn, `O=C(Nc1cccnc1)C1CCC(Cn2c(=O)[nH]c3ccccc3c2=O)CC1` (stereo not drawn) [Example 23] had a pIC50 of 4.52 to 6.52.

Take `O=c1[nH]c2ccccc2c(=O)n1C[C@H]1CC[C@H](C(=O)N2CCN(Cc3ccccc3)CC2)CC1` [Example 24]: the negative logarithm of the IC50 (pIC50) is 4.52 to 6.52.

Take `O=c1[nH]c2ccc(Cl)cc2c(=O)n1C[C@H]1CC[C@H](C(=O)N2CCN(Cc3ccccc3)CC2)CC1` [Example 25]: the pIC50 is 4.52 to 6.52.

Molecule `COc1ccc(N2CCN(C(=O)C3CCC(Cn4c(=O)[nH]c5ccccc5c4=O)CC3)CC2)cc1` (stereo not drawn) [Example 28] gave a negative-log IC50 (pIC50) of 4.52 to 6.52.

In turn, `CC(C)C(=O)N1CCN(C(=O)[C@H]2CC[C@H](Cn3c(=O)[nH]c4ccccc4c3=O)CC2)CC1` [Example 30] showed a negative logarithm of the IC50 (pIC50) of 4.52 to 6.52.

`COCC(=O)N1CCN(C(=O)[C@H]2CC[C@H](Cn3c(=O)[nH]c4ccccc4c3=O)CC2)CC1` [Example 31] gave a pIC50 of 4.52 to 6.52.

`O=C(CCC1CCCC1)N1CCN(C(=O)[C@H]2CC[C@H](Cn3c(=O)[nH]c4ccccc4c3=O)CC2)CC1` [Example 32] gave a pIC50 of 4.52 to 6.52.

`CC(=O)N1CCN(C(=O)[C@H]2CC[C@H](Cn3c(=O)[nH]c4ccccc4c3=O)CC2)CC1` [Example 33] had a pIC50 of 4.52 to 6.52.

For `CC(C)(C)NC(=O)N1CCN(C(=O)[C@H]2CC[C@H](Cn3c(=O)[nH]c4ccccc4c3=O)CC2)CC1` [Example 34], the pIC50 was 4.52 to 6.52.

Regarding `CCCCC(=O)N1CCN(C(=O)[C@H]2CC[C@H](Cn3c(=O)[nH]c4ccccc4c3=O)CC2)CC1` [Example 35], the negative-log IC50 (pIC50) is 4.52 to 6.52.

As for `O=C(c1ccno1)N1CCN(C(=O)[C@H]2CC[C@H](Cn3c(=O)[nH]c4ccccc4c3=O)CC2)CC1` [Example 36], the negative-log IC50 (pIC50) was 4.52 to 6.52.

Molecule `COc1ccc(CN2CCN(C(=O)[C@H]3CC[C@H](Cn4c(=O)[nH]c5ccccc5c4=O)CC3)CC2)cc1` [Example 38] showed a negative-log IC50 (pIC50) of 4.52 to 6.52.

The molecule `COc1cccc(CN2CCN(C(=O)[C@H]3CC[C@H](Cn4c(=O)[nH]c5ccccc5c4=O)CC3)CC2)c1` [Example 39] had a negative logarithm of the IC50 (pIC50) of 4.52 to 6.52.

The molecule `Cc1ccc(CN2CCN(C(=O)[C@H]3CC[C@H](Cn4c(=O)[nH]c5ccccc5c4=O)CC3)CC2)o1` [Example 40] had a pIC50 of 4.52 to 6.52.

In turn, `CC(C)N1CCN(C(=O)[C@H]2CC[C@H](Cn3c(=O)[nH]c4ccccc4c3=O)CC2)CC1` [Example 41] showed a negative logarithm of the IC50 (pIC50) of 4.52 to 6.52.

On to `O=C(N1CCCC1)N1CCN(C(=O)[C@H]2CC[C@H](Cn3c(=O)[nH]c4ccccc4c3=O)CC2)CC1` [Example 42], for which the negative logarithm of the IC50 (pIC50) was 4.52 to 6.52.

As for `CC(C)N1CCN(C(=O)[C@H]2CC[C@H](Cn3c(=O)[nH]c4ccc(Cl)cc4c3=O)CC2)CC1` [Example 43], the negative-log IC50 (pIC50) is 4.52 to 6.52.

Regarding `O=C1CC(c2ccccc2)NC(=O)N1C[C@H]1CC[C@H](C(=O)N2CCN(c3ccccc3)CC2)CC1` (stereo partly drawn) [Example 44], the negative-log IC50 (pIC50) is 4.52 to 6.52.

`O=C1Nc2ccccc2CN1C[C@H]1CC[C@H](C(=O)N2CCN(c3ccccc3)CC2)CC1` [Example 45] had a pIC50 of 4.52 to 6.52.

`CN1C(=O)N(C[C@H]2CC[C@H](C(=O)N3CCN(c4ccccc4)CC3)CC2)Cc2ccccc21` [Example 46] had a negative-log IC50 (pIC50) of 4.52 to 6.52.

The molecule `O=c1[nH]c2ccccc2c(=O)n1C[C@H]1CC[C@H](C(=O)Nc2ccc3ncsc3c2)CC1` [Example 49] showed a negative logarithm of the IC50 (pIC50) of 4.52 to 6.52.

The molecule `CC(c1ccccc1)N1CCN(C(=O)C2CCC(Cn3c(=O)[nH]c4ccccc4c3=O)CC2)CC1` (stereo not drawn) [Example 50] showed a negative logarithm of the IC50 (pIC50) of 4.52 to 6.52.

On to `CC(C)C(=O)N1CCN(C(=O)[C@H]2CC[C@H](Cn3c(=O)[nH]c4cccc(Cl)c4c3=O)CC2)CC1` [Example 51], for which the pIC50 was 4.52 to 6.52.

Consider `CC(=O)N1CCN(C(=O)[C@H]2CC[C@H](Cn3c(=O)c4ccccc4n(C)c3=O)CC2)CC1` [Example 52], for which the negative logarithm of the IC50 (pIC50) was 4.52 to 6.52.

Consider `COCC(=O)N1CCN(C(=O)[C@H]2CC[C@H](Cn3c(=O)c4ccccc4n(C)c3=O)CC2)CC1` [Example 53], for which the negative logarithm of the IC50 (pIC50) was 4.52 to 6.52.

Consider `CC(C)C(=O)N1CCN(C(=O)[C@H]2CC[C@H](Cn3c(=O)[nH]c4cccc(F)c4c3=O)CC2)CC1` [Example 54], for which the negative-log IC50 (pIC50) was 4.52 to 6.52.

The molecule `COc1cccc2[nH]c(=O)n(C[C@H]3CC[C@H](C(=O)N4CCN(C(=O)C(C)C)CC4)CC3)c(=O)c12` [Example 55] gave a pIC50 of 4.52 to 6.52.

On to `CC(C)C(=O)N1CCN(C(=O)[C@H]2CC[C@H](Cn3c(=O)n(C)c4ccccc43)CC2)CC1` [Example 61], for which the pIC50 is 4.52 to 6.52.

For the molecule `COCC(=O)N1CCN(C(=O)[C@H]2CC[C@H](Cn3c(=O)[nH]c4ccc(Cl)cc4c3=O)CC2)CC1` [Example 62], the negative logarithm of the IC50 (pIC50) is 4.52 to 6.52.

(Values after patent US8865704B2, “Wnt pathway antagonists” (Siena Biotech S.p.A., priority 2009, dated 2014).)
